Results: PubChem BioAssay (NCI)
Where “and” joins values, the source holds several entries; their conditions need not be identical. Equal values may be shown once.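 Step 1: Grow cells in 96-well plates. Step 2: Expose to compound for 48 hours at 5 concentrations. Step 3: Interpolate endpoints linearly; if unreached, use highest concentration. GI50 is the concentration that inhibits growth by half. Definition used: TGI = concentration required for complete inhibition of growth.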

Legend:
Experiment in all cases: DTP human tumour cell line panel, 48 h
[1] = test system: UACC-257 melanoma
[2] = test system: DU-145 prostate
[3] = test system: SF-268 CNS
[4] = test system: A498 renal
[5] = test system: SR leukemia
[6] = test system: NCI-H460 lung
[7] = test system: SNB-19 CNS
[8] = test system: HOP-62 NSCLC
[9] = test system: EKVX NSCLC
[10] = test system: 786-0 renal

Structure (SMILES)	GI50 [1] [µM]	TGI [1] [µM]	GI50 [2]	TGI [2]	GI50 [3]	TGI [3]	GI50 [4]	TGI [4]	GI50 [5]	TGI [5]	GI50 [6]	TGI [6]	GI50 [7]	TGI [7]	GI50 [8]	TGI [8]	GI50 [9]	TGI [9]	GI50 [10]	TGI [10]
N#C/C(=C\c1ccc[nH]1)c1cc(-c2ccc(Cl)cc2)nn1-c1ccccc1	10.9	35.8	3.81 µM	> 40.7 µM	4.05 µM	18.3 µM	2.62 µM	12.6 µM	1.97 µM	6.28 µM	3.43 µM	13.3 µM	9.35 µM	> 56.9 µM	7.63 µM	24.2 µM	2.89 µM	> 100 µM	6.06 µM	27.5 µM
COC(=O)Nc1nc2ccc(C(=O)c3cccc(I)c3)cc2[nH]1	15.1	> 100	0.0861 µM	1.76 µM	0.18 µM	17.5 µM	0.0434 µM	0.614 µM	0.0314 µM	–	0.0407 µM	4.33 µM	0.0625 µM	> 39.8 µM	0.304 µM	38.5 µM	0.176 µM	> 87.9 µM	0.0848 µM	6.15 µM
COC(=O)CC[C@@H](C)[C@H]1CC[C@H]2[C@@H]3CC[C@@H]4C[C@H](O)CC[C@]4(C)[C@H]3CC[C@]12C	–	29.5	–	32.6 µM	–	43.2 µM	–	35.1 µM	–	52.1 µM	–	39.9 µM	–	44.9 µM	–	35.5 µM	–	35.6 µM	–	33.8 µM
Cc1ccc(NC(=O)COc2ccc(Cl)cc2)cc1Cl	–	> 100	–	> 100 µM	–	> 100 µM	–	> 100 µM	–	69.7 µM	–	> 100 µM	–	> 100 µM	–	> 100 µM	–	> 100 µM	–	> 100 µM
O=C1C2=C(C(=O)c3ccccc31)C(O)(S(=O)(=O)O)C(O)(S(=O)(=O)O)C1N=CC=CC21 (configuration not stated)	10.8	47.7	6.09 µM and 5.9 µM	44 µM and 22.2 µM	3.93 µM and 5.96 µM	41.4 µM and 32.1 µM	10.1 µM and 3.3 µM	40.1 µM and 12.7 µM	4.58 µM and 1.14 µM	> 100 µM and 50.1 µM	2.84 µM and 1.39 µM	11.7 µM and 6.25 µM	4.28 µM and 5.5 µM	44.4 µM and > 100 µM	5.36 µM and 3.03 µM	31.8 µM and 19.2 µM	3.32 µM and 2.71 µM	31.9 µM and 14.5 µM	5.03 µM and 4.29 µM	25 µM and 17.4 µM
Cc1cc(I)cc(CN(C)CCCN2CCC(C)CC2)c1O	11.8	25.3	15.5 µM	28.8 µM	14.6 µM	27.7 µM	7.53 µM	21.2 µM	11.5 µM	32.2 µM	12.5 µM	25 µM	16.4 µM	34 µM	14.1 µM	27.2 µM	14.2 µM	31 µM	13.4 µM	26.2 µM
O=C1/C=C/[C@@H](O)[C@@H]2C[C@@H](O)C[C@H]2/C=C/CCC[C@H](CCO)O1	0.0609	> 100	0.426 µM	> 100 µM	0.0782 µM	> 73 µM	0.0442 µM	0.274 µM	0.297 µM	–	0.382 µM	> 100 µM	0.377 µM	> 100 µM	0.237 µM	> 31.6 µM	0.253 µM	> 100 µM	0.0362 µM	0.142 µM
O=C1OC(OC/C(Br)=C(\Br)COC2OC(=O)C(Cl)=C2Cl)C(Cl)=C1Cl (configuration not stated)	–	23.9	–	28.5 µM	–	26.8 µM	–	34.1 µM	–	2.16 µM	–	33.6 µM	–	34.3 µM	–	29.5 µM	–	22.8 µM	–	6.4 µM
COc1ccc(C(=O)/C=C/c2ccc(OCc3cccc(C(F)(F)F)c3)c(OC)c2)cc1OC	613	> 1000	72.6 µM	> 1000 µM	76.6 µM	> 1000 µM	207 µM	> 1000 µM	33.8 µM	> 1000 µM	51.7 µM	> 1000 µM	78.9 µM	> 1000 µM	51.5 µM	> 1000 µM	45.8 µM	> 1000 µM	67.3 µM	> 1000 µM
COc1c(C(N)=O)cc(-c2ccc(Cl)cc2)cc1-c1ccc(S(N)(=O)=O)cc1	8.72	> 25	9.29 µM	> 25 µM	8.81 µM	> 25 µM	9.03 µM	> 23.3 µM	6 µM	15.7 µM	11.5 µM	> 25 µM	14 µM	> 25 µM	18.8 µM	> 25 µM	8.91 µM	> 25 µM	12.5 µM	> 25 µM
COc1cc2[nH]c3c(c2cc1OC)CCN[C@@]31CC[C@@]2(CC3c4c(cc(OC)c(O)c42)CCN3C)C[C@@H]1OC (some centres not stated)	–	32.9	–	> 100 µM	–	> 100 µM	–	> 96.9 µM	–	36.6 µM	–	> 100 µM	–	> 100 µM	–	> 100 µM	–	> 46.4 µM	–	> 100 µM
Cn1nc(C(F)(F)F)cc1-c1cc(Cl)c(OCc2ccc(Cl)cc2)c(-c2ccc(Cl)c(C(F)(F)F)c2)c1O	0.964	3.14	1.76 µM	6.87 µM	1.24 µM	5.47 µM	0.251 µM	1.09 µM	0.651 µM	2.11 µM	0.852 µM	2.21 µM	1.16 µM	6.72 µM	1.26 µM	3.3 µM	1.21 µM	5.41 µM	1.07 µM	2.63 µM
C[C@]12CCC(=O)C=C1C[C@@H](O)[C@@H]1[C@@H]2CC[C@@]2(C)[C@H]1CC[C@]2(C)O	–	> 100	–	> 100 µM	–	> 100 µM	–	> 100 µM	–	> 100 µM	–	> 100 µM	–	> 100 µM	–	> 100 µM	–	> 100 µM	–	> 100 µM
C=C1C(=O)O[C@@H]2/C=C(/C)[C@@H](OC(C)=O)C[C@@H](O)/C(C)=C\[C@@H](OC(=O)[C@]3(C)O[C@@H]3C)[C@@H]12	–	33.2	–	28.1 µM	–	41.8 µM	–	32.3 µM	–	21.5 µM	–	72.9 µM	–	> 100 µM	–	> 100 µM	–	24.4 µM	–	15.8 µM
c1ccc2c(N=NSc3ncnc4nc[nH]c34)c3ccccc3nc2c1	0.662	6.56	1.4 µM	6.63 µM	1.8 µM	6.53 µM	1.13 µM	2.6 µM	1.06 µM	8.17 µM	0.877 µM	5.67 µM	1.36 µM	13 µM	1.2 µM	5.71 µM	2.61 µM	12.8 µM	1.79 µM	13.8 µM
CCOC(=O)N1CCC(N=C2CSc3nnc(-c4cc(C(F)(F)F)cc(C(F)(F)F)c4)n3N2)CC1	1.76	3.81	2.39 µM	6.17 µM	2.23 µM	4.86 µM	1.94 µM	5.52 µM	2.39 µM	6.23 µM	2.11 µM	4.1 µM	3.14 µM	11.9 µM	2.17 µM	4.03 µM	1.77 µM	5.43 µM	2.18 µM	5.21 µM
CC1=C(CCC(C)CO)O[C@H]2C[C@H]3[C@@H]4CC[C@H]5C[C@@H](O)CC[C@]5(C)[C@H]4CC(=O)[C@]3(C)[C@@H]12 (some centres not stated)	–	36.6	–	55.1 µM	–	57.6 µM	–	44 µM	–	36.4 µM	–	21.8 µM	–	55.5 µM	–	38.3 µM	–	> 90.2 µM	–	52.4 µM
CCC(=O)NC1=C(Cl)C(=O)C(NC(=O)CC)=C(Cl)C1=O	14.8	28.3	9.49 µM	22.3 µM	19.7 µM	34.2 µM	38.2 µM	> 72.6 µM	8.13 µM	> 23.2 µM	> 45.7 µM	> 63.3 µM	> 41 µM	> 55.7 µM	> 47.7 µM	> 65.1 µM	18.1 µM	33.1 µM	18.7 µM	33.4 µM
COC(=O)[C@]1(C)CCC[C@@]2(C)C3=C(CC[C@H]12)C[C@@H](CC(OC(C)=O)OC(C)=O)[C@@H](C)C3	10.1	19.7	10.4 µM	23.3 µM	7.85 µM	16.9 µM	11.5 µM	19.9 µM	11.2 µM	> 50 µM	9.2 µM	25.3 µM	13.5 µM	32.1 µM	11.3 µM	23.4 µM	11.7 µM	23.9 µM	8.97 µM	17.2 µM
NC1CC(=O)c2c(-c3cccs3)sc(-c3cccs3)c21 (configuration not stated)	52.3	> 100	14.4 µM	32.9 µM	30.8 µM	> 100 µM	77.8 µM	> 100 µM	7.03 µM	> 100 µM	38.7 µM	> 100 µM	36 µM	> 100 µM	73.4 µM	> 100 µM	51.3 µM	> 100 µM	11.7 µM	> 100 µM
CN1CCN(Cc2ccc(NC(=O)c3cncc(C#Cc4ccc(N)nc4)c3)cc2C(F)(F)F)CC1	1.42	5.27	0.845 µM	6.71 µM	1.09 µM	5.3 µM	0.567 µM	1.93 µM	0.679 µM	3.51 µM	0.988 µM	5.86 µM	2.6 µM	9.44 µM	1.3 µM	6.08 µM	1.16 µM	6.08 µM	1.76 µM	6.83 µM
COc1cc2c(cc1OCC(=O)Nc1ccc(Cl)cc1C(=O)c1ccccc1Cl)N=CC1CCCN1C2=O (configuration not stated)	16.6	30.2	2.65 µM	8.56 µM	12.9 µM	33 µM	12.3 µM	24.9 µM	3.7 µM	28 µM	11.1 µM	27.1 µM	14.9 µM	30.1 µM	13.8 µM	28.6 µM	20.3 µM	35.1 µM	12.4 µM	26 µM
Nc1nc(N)c2c(ccc3c2ccn3Cc2cccc([N+](=O)[O-])c2)n1	1.07	2.47	0.151 µM and 0.086 µM	2.08 µM and 2 µM	0.0535 µM	1.99 µM	0.166 µM and 0.224 µM	1.97 µM and 1.94 µM	0.00779 µM	–	0.00501 µM	1.89 µM and 1.35 µM	0.0898 µM	2.42 µM	0.0654 µM	1.87 µM	1.32 µM	–	0.0411 µM	1.5 µM
O=C(Nc1cccc([N+](=O)[O-])c1)c1cccc(C(=O)Nc2cccc([N+](=O)[O-])c2)c1	> 100	> 100	> 84.2 µM	> 100 µM	5.22 µM	> 100 µM	20.2 µM	79.5 µM	> 100 µM	> 100 µM	> 61.9 µM	> 100 µM	28.6 µM	> 100 µM	21.9 µM	> 70.5 µM	> 59.9 µM	> 100 µM	25.6 µM	> 100 µM
CCOC(=O)C1=C(Nc2ccc(OC)cc2)C(N)=NC1=N	> 100	> 100	3.49 µM	> 100 µM	7.87 µM	> 100 µM	2.71 µM	8.11 µM	2.31 µM	> 100 µM	3.73 µM	> 100 µM	3.68 µM	> 100 µM	6.23 µM	> 100 µM	–	–	5.04 µM	> 100 µM
CCC[CH2][Sn]1([CH2]CCC)[O]C(=O)c2cccc([N+](=O)[O-])c2C(=O)[O]1	0.292	1.19	0.795 µM	2.05 µM	0.431 µM	1.65 µM	0.191 µM	0.547 µM	0.28 µM	1.97 µM	1.66 µM	3.57 µM	1.2 µM	2.51 µM	1.92 µM	3.36 µM	–	–	0.724 µM	1.99 µM
